Laboratory results as given in patent US20040191842A1, “Chemopreventive and therapeutic aspects of polyphenolic compositions and assays” (Medical College of Georgia Research Institute, Inc., priority 2002, published 2004).

Tests used:
p57 (KIP2) = assay: Western blot of p57 in SCC25 oral carcinoma cells; assay type: cell-based, human; settings: 50 μM EGCG or 0.2 mg/ml GTPPs, 24 h
Description: Cell treatments. For 24 hours treatments, exponentially growing cells with 40% confluency (to minimize differentiation and spontaneous apoptosis) were either maintained in 50 μM EGCG (2.29 mg/100 ml) or 0.2 mg/ml of GTPPs in tissue culture flasks (25 cm^2). Control flasks contained cells without any treatment. To test whether BaP or NNK interfere with the induction of p57, the human keratinocytes were treated with 0.12 μM BaP, or 10 μM NNK, either alone or in combination with 50 μM EGCG. To examine the time course of p57 induction, cells were treated with 50 μM EGCG and harvested for Western analysis at 30 minutes, 2 hours, 6 hours, and 24 hours. The human keratinocytes were treated when the cell density reached 85-90% confluency (to mimic the epithelium).
Western blot analysis. Cells from different treatment groups were lysed in RIPA buffer (1% NP-40, 1% sodium deoxycholate, 0.1% SDS, 0.15 M NaCl, 0.01 M sodium phosphate, pH 7.2, and 1% Trasylol) containing proteinase inhibitors (1 mM PMSF, 1 μg/ml each of aprotinin, leupeptin, and pepstatin). The concentration of protein in each sample was determined using the BioRad DC Protein Assay and spectrophotometry. Fifty micrograms (μg) of protein from each sample and a BioRad molecular weight standard marker were run on a 10% SDS-PAGE, followed by transfer to nitrocellulose membranes. […]

OSC2 cells = assay: Cell growth assay, OSC2 cells; assay type: cell-based, human; settings: 50 μM EGCG, day four
Description: Cell growth assay. Cells (2×10^5) were seeded in each T25 culture flask with 5 ml DMEM/F12 medium for 48 hours. The treatments were started with 50 μM EGCG for 24 hours, 48 hours and 96 hours. At each time point, the cell numbers were counted using a hemacytometer with the presence of Trypan blue.

caspase 3 = assay: Caspase 3 activity assay, caspase 3 null MCF7 cells; assay type: cell-based, human; settings: increasing EGCG or 0.2 mg/ml GTPPs, 24 h
Description: Caspase 3 activity assay. The Caspase 3 Apoptosis Detection Kit was purchased from Santa Cruz Biotech. Inc. In a 24 well tissue culture plate, 10^5 cells/well of cells in triplicates were plated. […] To each well, 100 μl of 2×reaction buffer was added with […]. Finally, 5 μl of DEVD-AFC substrate was added to each well containing cell lysates. The reaction mixtures were incubated for 1 hour at 37° C. The caspase 3 activity in each well was measured using a fluorescence microplate reader set for 405 nm excitation and 505 nm emission.

transglutaminase = assay: Transglutaminase activity assay, exponentially growing keratinocytes; assay type: cell-based, human; settings: 50 μM or 100 μM EGCG
Description: Transglutaminase activity assay. Normal human epidermal keratinocytes in early passages (2-3) were allowed to grow in 6-well tissue culture plates prior to EGCG exposure. The cells were scraped in homogenization buffer (0.1 M Tris/acetate, pH 8.5, containing 0.2 mM EDTA, 20 μM AEBSF, 2 μg/mL aprotinin, 2 μM leupeptin and 1 μM pepstatin A), collected by centrifugation and subjected to one freeze-thaw cycle prior to lysis by sonication. Unlysed cells were pelleted by centrifugation and aliquots of the supernatant collected for the determination of transglutaminase activity and protein concentration. Protein quantities were determined using the BioRad Protein Assay with bovine serum albumin as standard. Transglutaminase activity was measured as the incorporation of [^3 H] putrescine into dimethylated casein, as described previously (Jung et al., J Invest Dermatol, 1998; 110:318-23).

[1] = test system: normal human primary epidermal keratinocytes; assay: Immunocytochemistry of differentiation markers in keratinocytes; assay type: cell-based; settings: 50-100 μM EGCG, 24 hours
Description: Immunocytochemistry. Normal human keratinocytes were seeded in 8-well chamber slides (Nagle Nunc International, Naperville, Ill.) 12 hours prior to EGCG treatment. At the end of a 24-hour treatment, the slides were washed with PBS and fixed in a cold 4% paraformaldehyde solution for 10 minutes. […] The primary antibodies, rabbit-anti-human p57 polyclonal antibody C-19, rabbit anti-human keratin 1, and filaggrin antibodies were applied for 1 hour at 37° C. at the dilutions recommended by the manufacturers. The streptavidin detection technique (Biogenex, USA) was used with 3-amino-9-ethylcarbazole as chromogen. Negative control sections consisted of tissues treated with 1% diluted normal goat serum instead of primary antibody. Mayer's hematoxylin was used as a counter-stain.

catalase = assay: Catalase activity assay in cell lysates; assay type: cell-based, human
Description: (§1) Assays for SOD and catalase activities. Cells (1×10^6 cells/well) were incubated with or without EGCG (50 μM) in FilterCap 50 ml flasks (Nagel Nunc International, Rochester, N.Y.) for 30 minutes at 37° C. After the incubation, cells were harvested and disrupted in 100 μl of 10 mM Tris-HCl (pH 7.4) containing 0.1%(v/v) Triton X-100, 10 μg/ml leupeptin, 10 μg/ml pepstatin A and 100 mM phenylmethylsulfonyl fluoride by three cycles of freezing/thawing. After centrifugation at 17,000×g for 20 minutes at 4° C., the supernatants were used for SOD and catalase assays using the SOD Assay Kit-WST (Dojindo Molecular Technologies, Inc., Gaithersburg, Md.) and the AMPLEX Red Catalase Assay Kit (Molecular Probes), respectively. The activities of SOD and catalase were calibrated using a standard curve prepared with purified human SOD and catalase. The activities of SOD and catalase were expressed as units (U)/10^6 cells.
Assays for SOD and catalase activities. Cells (10^5 cells/well) were incubated with or without EGCG (50 μM) in 24-well culture plates for desirable time periods at 37° C. After the incubation, cells were harvested and disrupted in 100 μl of 10 mM Tris-HCl (pH 7.4) containing 0.1% (v/v) Triton ×-100, 10 μg/ml leupeptin, 10 μg/ml pepstatin A and 100 mM PMSF by three cycles of freezing/thawing. After centrifugation at 17,000×g for 20 minutes at 4° C., the supernatants were used for SOD and catalase assays using the SOD Assay Kit-WST (Molecular Technologies, Inc., Gaithersburg, Md.) and the Amplex Red Catalase Assay Kit (Molecular Probes), respectively. The activities of SOD and catalase were calibrated using a standard curve prepared with purified human SOD and catalase. The activities of SOD and catalase were expressed as units (U)/10^6 cells.

SOD = SOD activity assay in cell lysates; assay type: cell-based, human; settings: 50 μM EGCG, 30 minutes; NHEK, OSC-2, OSC-4
Description: as §1
Assays for SOD and catalase activities. Cells (10^5 cells/well) were incubated with or without EGCG (50 μM) in 24-well culture plates for desirable time periods at 37° C. After the incubation, cells were harvested and disrupted in 100 μl of 10 mM Tris-HCl (pH 7.4) containing 0.1% (v/v) Triton ×-100, 10 μg/ml leupeptin, 10 μg/ml pepstatin A and 100 mM PMSF by three cycles of freezing/thawing. […] The activities of SOD and catalase were expressed as units (U)/10^6 cells.

caspase 14 = assay: Immunoblot of caspase 14 protein in NHEK; assay type: cell-based, human
Description: (§2) To identify additional factors those suppress EGCG -induced apoptosis and facilitate cell differentiation in NHEK, exponentially growing NHEK (Cambrex, Baltimore, Md.) were exposed to 100 μM EGCG for 0, 2, 6 and 24 hours, prior to total RNA isolation using the Qiagen RNeasy mini kit (Valencia, Calif.), which was followed by RT-PCR labeling and hybridization with the Human Apoptosis Macroarray membrane (Sigma-Genosys, The Woodlands, Tex.). Total cell lysates also were collected following a variety of EGCG treatments. The protein levels for caspase 14 and p21 were determined by immuno-blotting using antibodies specific for caspase 14 and p21 (Santa Cruz Biotechnology, Santa Cruz, Calif.).

p21 = assay: Immunoblot of p21 protein in NHEK; assay type: cell-based, human; settings: EGCG 100 μM or higher, beyond 24 hours
Description: as §2

NS-SV-AC cells = assay: Mitochondrial SDH activity in immortalized salivary glandular cells; assay type: cell-based, human; settings: NS-SV-AC and two other immortalized salivary glandular cell lines
Description: MTT [3-(4,5-dimethylthiazol-2-yl)-2,5-diphenyl tetrazolium bromide] assay. […] Cells (1.5×10^4 cells/well) were seeded in a 96-well microplate and treated with the indicated doses of EGCG for 24 hours. After the treatment, the cells in each well were washed with 200 μl of phosphate-buffered saline (PBS), incubated with 100 μl of 2% MTT in a solution of 0.05 M Tris, 0.5 mM MgCl2, 2.5 mM CoCl2, and 0.25 M disodiumn succinate as substrate (Sigma) at 37° C. for 30 minutes. Cells were fixed in situ by the addition of 100 μl of 4% formalin in 0.2 M Tris (pH 7.7), and after a 5 minute incubation at room temperature liquid was removed and the wells were allowed to dry. Each well was rinsed with 200 μl water and cells were solubilized by the addition of 100 μl of 6.35% 0.1 N NaOH in DMSO. The colored formazan product was measured by a Thermo MAX micro plate reader (Molecular Devices Corp., Sunnyvale, Calif.) at a wavelength of 562 nm. Experiments were repeated three times with triplicate samples for each experiment.

[2] = as stated in Example 9; read-out: Cmax in the plasma; cited from earlier work

Question: Which p57 levels (p57 (KIP2)) does the source give for `O=C(O[C@@H]1Cc2c(O)cc(O)cc2O[C@@H]1c1cc(O)c(O)c(O)c1)c1cc(O)c(O)c(O)c1` [EGCG, (−)-epigallocatechin-3-gallate] here?
Answer: Its p57 levels is “remained unchanged”.

Question: What about the “cell number compared to controls” value (OSC2 cells) of the same compound?
Answer: The value was 50%.

Question: And the “caspase 3 activity” value (caspase 3)?
Answer: The value was “did not show caspase 3 activity”.

Question: And the “transglutaminase activity vs control” value (transglutaminase)?
Answer: The value was “significantly higher activity”.

Question: And the “differentiation (p57/KIP2, keratin 1, filaggrin)” value [1]?
Answer: Its value is “underwent differentiation in 24 hours”.

Question: What about the catalase activity (catalase; 50 μM EGCG, 30 minutes, NHEK, OSC-2, OSC-4) of the same compound?
Answer: Its catalase activity is “Significant changes in catalase activity was not observed”.

Question: And the “catalase activity in OSC-4 cells” value (catalase; EGCG, 24-hour treatment period)?
Answer: Its value is “slight decrease”.

Question: And the “catalase and total SOD enzymatic activity levels” value (catalase; EGCG, 24-hour treatment period, NHEK, OSC-2, OSC-4)?
Answer: The value was “had no effect on the enzymatic activity levels”.

Question: What about the SOD activity (SOD) of the same compound?
Answer: Its SOD activity is “did not alter SOD activity”.

Question: And the “production of immunoreactive caspase 14 increased” value (caspase 14; 30 μM EGCG (Example 10))?
Answer: The value was 5 fold.

Question: What about the “increase in caspase 14 protein” value (caspase 14; 30 μM EGCG, 48 hours) of the same compound?
Answer: Its value is 26 fold.

Question: And the “increase in caspase 14 protein” value (caspase 14; 100 μM EGCG, 24 hours)?
Answer: Its value is 2 fold.

Question: And the “increase in caspase 14 protein” value (caspase 14; 100 μM EGCG, 48 hours)?
Answer: The value was 5 folds.

Question: And the “increase in caspase 14 protein” value (caspase 14; EGCG at or below 50 μM, 24 hours)?
Answer: Its value is greater than 5 fold.

Question: And the “p21 protein level, of controls” value (p21)?
Answer: The value was “below 50%”.

Question: And the “tolerance, mitochondrial SDH activity” value (NS-SV-AC cells)?
Answer: The value was “tolerant to high concentrations of EGCG”.

Question: And the Cmax [2]?
Answer: The Cmax was 10 µM.
